Results published in patent publication US11542240B2, “STK19 inhibitors for treatment of cancer” (TRUSTEES OF BOSTON UNIVERSITY, priority 2018, dated 2023).
Like-named read-outs stand apart in the source and are kept apart here.

Key:
Assay in all cases: biochemical
Assay type in all cases: binding
[1] = target: panel of 468 diverse kinases (Homo sapiens, UniProt Q9H1R3); details: MYLK2; 1000 nM; read-out: Percent Control
[2] = target: panel of 468 diverse kinases (Homo sapiens, UniProt P36888, D835H); details: FLT3(D835H); 1000 nM; read-out: Percent Control
[3] = target: panel of 468 diverse kinases (Homo sapiens, UniProt Q9BYT3); details: STK33; 1000 nM; read-out: Percent Control
[4] = target: panel of 468 diverse kinases (Homo sapiens, UniProt P54756); details: EPHA5; 1000 nM; read-out: Percent Control
[5] = target: panel of 468 diverse kinases (Homo sapiens, UniProt P06241); details: FYN; 1000 nM; read-out: Percent Control
[6] = target: panel of 468 diverse kinases (Homo sapiens, UniProt Q9P0L2); details: MARK1; 1000 nM; read-out: Percent Control
[7] = target: panel of 468 diverse kinases (Homo sapiens, UniProt P42336, I800L); details: PIK3CA(I800L); 1000 nM; read-out: Percent Control
[8] = target: panel of 468 diverse kinases (Homo sapiens, UniProt Q9Y2K2); details: QSK; 1000 nM; read-out: Percent Control
[9] = target: panel of 468 diverse kinases (Homo sapiens, UniProt O15111); details: IKK-alpha; 1000 nM; read-out: Percent Control
[10] = target: panel of 468 diverse kinases (Homo sapiens, UniProt Q13976); details: PRKG1; 1000 nM; read-out: Percent Control
[11] = target: panel of 468 diverse kinases (Homo sapiens, UniProt Q13555); details: CAMK2G; 1000 nM; read-out: Percent Control
[12] = target: panel of 468 diverse kinases (Homo sapiens, UniProt P42336, E545A); details: PIK3CA(E545A); 1000 nM; read-out: Percent Control
[13] = target: panel of 468 diverse kinases (Homo sapiens, UniProt P14616); details: INSRR; 1000 nM; read-out: Percent Control
[14] = target: panel of 468 diverse kinases (Homo sapiens, UniProt Q08881); details: ITK; 1000 nM; read-out: Percent Control
[15] = target: panel of 468 diverse kinases (Plasmodium falciparum, UniProt P62344); details: read-out: Percent Control
[16] = target: panel of 468 diverse kinases (Homo sapiens, UniProt P52564); details: MEK6; 1000 nM; read-out: Percent Control
[17] = target: panel of 468 diverse kinases (Homo sapiens, UniProt O14733); details: MKK7; 1000 nM; read-out: Percent Control
[18] = target: panel of 468 diverse kinases (Homo sapiens, UniProt P15056); details: BRAF; 1000 nM; read-out: Percent Control
[19] = target: panel of 468 diverse kinases (Homo sapiens, UniProt P35916); details: FLT4; 1000 nM; read-out: Percent Control
[20] = target: panel of 468 diverse kinases (Homo sapiens, UniProt P78356); details: PIP5K2B; 1000 nM; read-out: Percent Control
[21] = target: panel of 468 diverse kinases (Homo sapiens, UniProt P51957); details: NEK4; 1000 nM; read-out: Percent Control
[22] = target: panel of 468 diverse kinases (Homo sapiens, UniProt O75385); details: ULK1; 1000 nM; read-out: Percent Control
[23] = target: panel of 468 diverse kinases (Homo sapiens, UniProt O43353); details: RIPK2; 1000 nM; read-out: Percent Control
[24] = target: panel of 468 diverse kinases (Homo sapiens, UniProt Q96NX5); details: CAMK1G; 1000 nM; read-out: Percent Control
[25] = target: panel of 468 diverse kinases (Homo sapiens, UniProt P00519); details: 1000 nM, read-out: Percent Control
[26] = target: panel of 468 diverse kinases (Homo sapiens, UniProt O75460); details: ERN1; 1000 nM; read-out: Percent Control
[27] = target: panel of 468 diverse kinases (Homo sapiens, UniProt P0C264); details: SgK110; 1000 nM; read-out: Percent Control
[28] = target: panel of 468 diverse kinases (Homo sapiens, UniProt Q9HAZ1); details: CLK4; 1000 nM; read-out: Percent Control
[29] = target: panel of 468 diverse kinases (Homo sapiens, UniProt P41743); details: PRKCI; 1000 nM; read-out: Percent Control
[30] = target: panel of 468 diverse kinases (Homo sapiens, UniProt Q02763); details: TIE2; 1000 nM; read-out: Percent Control
[31] = target: panel of 468 diverse kinases (Homo sapiens, UniProt Q05655); details: PRKCD; 1000 nM; read-out: Percent Control

panel of 468 diverse kinases (Homo sapiens, UniProt O75460), sequence (O75460 19-977 limits assumed): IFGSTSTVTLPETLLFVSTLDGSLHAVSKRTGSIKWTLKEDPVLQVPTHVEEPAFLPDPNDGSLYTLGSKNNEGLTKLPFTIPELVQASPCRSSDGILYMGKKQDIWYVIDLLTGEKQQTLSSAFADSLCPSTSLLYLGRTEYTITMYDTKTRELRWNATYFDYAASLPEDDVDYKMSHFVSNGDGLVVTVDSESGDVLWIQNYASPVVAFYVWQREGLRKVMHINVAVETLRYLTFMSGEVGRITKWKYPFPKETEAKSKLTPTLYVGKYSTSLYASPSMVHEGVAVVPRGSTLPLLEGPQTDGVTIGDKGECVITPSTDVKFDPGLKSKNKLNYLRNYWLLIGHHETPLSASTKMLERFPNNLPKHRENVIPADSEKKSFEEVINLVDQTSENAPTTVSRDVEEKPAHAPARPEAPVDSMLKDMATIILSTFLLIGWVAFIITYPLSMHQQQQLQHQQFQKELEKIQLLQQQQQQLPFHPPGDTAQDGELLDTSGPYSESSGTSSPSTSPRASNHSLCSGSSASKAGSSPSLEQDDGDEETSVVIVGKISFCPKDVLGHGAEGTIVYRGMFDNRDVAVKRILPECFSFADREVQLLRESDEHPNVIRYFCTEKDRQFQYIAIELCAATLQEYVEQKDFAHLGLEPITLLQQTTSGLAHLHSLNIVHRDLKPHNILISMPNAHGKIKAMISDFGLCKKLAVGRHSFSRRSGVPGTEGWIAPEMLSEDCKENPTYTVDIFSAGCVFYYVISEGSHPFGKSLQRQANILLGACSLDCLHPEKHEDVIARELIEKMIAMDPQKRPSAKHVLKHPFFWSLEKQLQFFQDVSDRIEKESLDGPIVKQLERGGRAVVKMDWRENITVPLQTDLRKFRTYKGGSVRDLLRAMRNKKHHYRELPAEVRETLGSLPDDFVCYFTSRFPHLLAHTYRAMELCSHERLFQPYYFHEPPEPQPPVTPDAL
panel of 468 diverse kinases (Homo sapiens, UniProt P78356), sequence (P78356 2-416 limits assumed): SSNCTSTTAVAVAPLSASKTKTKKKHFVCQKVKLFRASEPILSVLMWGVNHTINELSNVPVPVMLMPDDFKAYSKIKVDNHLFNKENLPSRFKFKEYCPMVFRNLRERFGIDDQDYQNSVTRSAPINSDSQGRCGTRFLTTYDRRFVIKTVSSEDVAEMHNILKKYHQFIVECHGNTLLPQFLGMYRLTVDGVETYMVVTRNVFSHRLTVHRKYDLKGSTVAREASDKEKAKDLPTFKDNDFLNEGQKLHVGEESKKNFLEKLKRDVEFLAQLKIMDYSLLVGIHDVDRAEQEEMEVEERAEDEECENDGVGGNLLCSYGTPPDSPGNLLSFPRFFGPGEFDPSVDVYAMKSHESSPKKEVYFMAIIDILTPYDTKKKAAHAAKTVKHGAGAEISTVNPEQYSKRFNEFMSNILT
panel of 468 diverse kinases (Plasmodium falciparum, UniProt P62344), sequence (P62344 2-524 limits assumed): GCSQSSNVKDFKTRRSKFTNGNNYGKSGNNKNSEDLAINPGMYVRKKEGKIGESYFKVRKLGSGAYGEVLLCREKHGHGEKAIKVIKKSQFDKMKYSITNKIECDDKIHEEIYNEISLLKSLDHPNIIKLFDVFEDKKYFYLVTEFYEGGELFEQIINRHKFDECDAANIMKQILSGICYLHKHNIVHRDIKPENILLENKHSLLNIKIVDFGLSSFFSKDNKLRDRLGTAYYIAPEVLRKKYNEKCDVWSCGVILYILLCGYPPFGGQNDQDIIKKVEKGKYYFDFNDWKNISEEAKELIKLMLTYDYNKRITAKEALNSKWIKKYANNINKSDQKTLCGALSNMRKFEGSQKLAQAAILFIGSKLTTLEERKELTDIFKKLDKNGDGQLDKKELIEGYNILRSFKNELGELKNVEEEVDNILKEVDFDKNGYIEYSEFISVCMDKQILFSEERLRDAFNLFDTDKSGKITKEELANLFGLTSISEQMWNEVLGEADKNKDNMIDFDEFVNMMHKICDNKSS
panel of 468 diverse kinases (Homo sapiens, UniProt P54756), sequence (P54756 25-1037 limits assumed): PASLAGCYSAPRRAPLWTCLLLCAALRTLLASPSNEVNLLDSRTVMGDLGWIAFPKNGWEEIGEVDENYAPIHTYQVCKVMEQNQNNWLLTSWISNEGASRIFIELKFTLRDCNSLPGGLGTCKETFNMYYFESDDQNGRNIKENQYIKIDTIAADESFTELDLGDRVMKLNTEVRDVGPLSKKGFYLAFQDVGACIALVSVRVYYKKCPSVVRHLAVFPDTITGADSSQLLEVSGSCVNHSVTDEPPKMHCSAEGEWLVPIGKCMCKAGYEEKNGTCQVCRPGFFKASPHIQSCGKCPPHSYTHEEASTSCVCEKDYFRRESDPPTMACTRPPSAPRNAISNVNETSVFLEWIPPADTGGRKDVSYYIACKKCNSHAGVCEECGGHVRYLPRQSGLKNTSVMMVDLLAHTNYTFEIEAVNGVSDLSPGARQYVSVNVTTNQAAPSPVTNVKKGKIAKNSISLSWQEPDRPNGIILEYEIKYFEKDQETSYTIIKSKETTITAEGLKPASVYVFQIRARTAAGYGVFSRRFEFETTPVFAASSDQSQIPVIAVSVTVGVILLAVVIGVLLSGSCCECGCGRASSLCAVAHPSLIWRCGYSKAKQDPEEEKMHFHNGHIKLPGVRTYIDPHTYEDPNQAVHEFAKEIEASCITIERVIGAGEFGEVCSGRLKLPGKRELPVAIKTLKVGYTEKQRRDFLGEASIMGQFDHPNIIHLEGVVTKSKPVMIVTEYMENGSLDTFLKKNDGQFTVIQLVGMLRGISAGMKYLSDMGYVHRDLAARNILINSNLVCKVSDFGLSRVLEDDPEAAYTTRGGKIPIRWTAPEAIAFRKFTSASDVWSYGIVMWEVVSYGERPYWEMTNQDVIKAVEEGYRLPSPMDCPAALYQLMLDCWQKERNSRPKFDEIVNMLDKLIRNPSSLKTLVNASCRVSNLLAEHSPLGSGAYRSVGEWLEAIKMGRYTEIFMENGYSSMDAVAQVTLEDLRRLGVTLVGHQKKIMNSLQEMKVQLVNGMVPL
panel of 468 diverse kinases (Homo sapiens, UniProt Q9H1R3), sequence (Q9H1R3 2-596 limits assumed): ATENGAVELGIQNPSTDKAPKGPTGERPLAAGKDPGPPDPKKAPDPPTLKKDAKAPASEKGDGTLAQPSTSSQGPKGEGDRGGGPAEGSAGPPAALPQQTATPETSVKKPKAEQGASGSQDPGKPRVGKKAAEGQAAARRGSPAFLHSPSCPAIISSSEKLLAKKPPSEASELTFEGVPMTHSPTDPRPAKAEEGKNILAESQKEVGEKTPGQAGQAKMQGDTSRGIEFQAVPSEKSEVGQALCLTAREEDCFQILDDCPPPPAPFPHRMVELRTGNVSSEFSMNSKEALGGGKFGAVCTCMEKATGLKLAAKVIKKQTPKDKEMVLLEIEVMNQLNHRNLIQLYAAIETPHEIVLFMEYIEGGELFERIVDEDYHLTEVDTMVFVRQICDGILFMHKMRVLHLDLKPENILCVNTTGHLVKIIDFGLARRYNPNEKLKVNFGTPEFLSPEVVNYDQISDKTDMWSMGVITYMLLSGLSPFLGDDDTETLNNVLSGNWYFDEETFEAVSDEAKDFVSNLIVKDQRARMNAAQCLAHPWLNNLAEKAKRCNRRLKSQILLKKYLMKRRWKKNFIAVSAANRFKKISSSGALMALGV
panel of 468 diverse kinases (Homo sapiens, UniProt P14616), sequence (P14616 27-742 limits assumed): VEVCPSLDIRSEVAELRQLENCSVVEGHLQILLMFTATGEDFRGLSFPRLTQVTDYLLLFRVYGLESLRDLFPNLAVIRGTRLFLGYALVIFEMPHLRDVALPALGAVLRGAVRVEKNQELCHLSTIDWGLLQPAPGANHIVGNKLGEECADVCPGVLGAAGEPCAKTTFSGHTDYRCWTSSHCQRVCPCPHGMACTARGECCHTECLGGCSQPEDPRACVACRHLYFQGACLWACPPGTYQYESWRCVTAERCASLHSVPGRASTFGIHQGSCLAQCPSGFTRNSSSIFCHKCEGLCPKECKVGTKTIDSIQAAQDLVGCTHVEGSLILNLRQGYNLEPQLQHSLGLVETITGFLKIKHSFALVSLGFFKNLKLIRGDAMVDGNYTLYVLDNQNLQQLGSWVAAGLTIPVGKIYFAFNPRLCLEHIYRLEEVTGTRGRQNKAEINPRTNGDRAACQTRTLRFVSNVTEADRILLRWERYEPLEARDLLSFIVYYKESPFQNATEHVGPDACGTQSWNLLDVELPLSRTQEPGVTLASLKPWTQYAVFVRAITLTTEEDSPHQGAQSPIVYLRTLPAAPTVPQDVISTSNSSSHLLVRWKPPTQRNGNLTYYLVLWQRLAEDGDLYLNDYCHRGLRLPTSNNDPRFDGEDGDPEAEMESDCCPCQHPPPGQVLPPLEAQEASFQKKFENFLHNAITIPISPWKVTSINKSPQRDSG
panel of 468 diverse kinases (Homo sapiens, UniProt P14616), sequence (P14616 747-1297 limits assumed): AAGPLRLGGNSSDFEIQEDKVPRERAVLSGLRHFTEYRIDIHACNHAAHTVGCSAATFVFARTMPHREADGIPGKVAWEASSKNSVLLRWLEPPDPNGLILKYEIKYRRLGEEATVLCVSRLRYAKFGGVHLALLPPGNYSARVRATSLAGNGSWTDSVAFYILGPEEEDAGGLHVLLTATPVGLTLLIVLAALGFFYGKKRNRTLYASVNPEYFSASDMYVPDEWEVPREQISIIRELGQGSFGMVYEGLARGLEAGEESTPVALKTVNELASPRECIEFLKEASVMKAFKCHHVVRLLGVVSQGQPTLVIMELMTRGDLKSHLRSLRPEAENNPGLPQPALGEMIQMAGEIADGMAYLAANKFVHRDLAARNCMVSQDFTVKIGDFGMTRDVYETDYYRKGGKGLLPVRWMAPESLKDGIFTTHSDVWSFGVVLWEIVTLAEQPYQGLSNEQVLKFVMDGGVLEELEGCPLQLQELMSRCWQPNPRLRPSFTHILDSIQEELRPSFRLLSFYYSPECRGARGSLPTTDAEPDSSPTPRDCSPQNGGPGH

COc1cc2nc(NC3CC3)nc(NC3CCN(C(C)C)CC3)c2cc1OC [Formula IV]
remaining activity at 1 µM [1]: 96% | remaining activity at 1 µM [2]: 81% | remaining activity at 1 µM [3]: 92% | remaining activity at 1 µM [4]: 86% | remaining activity at 1 µM [5]: 100% | remaining activity at 1 µM [6]: 92% | remaining activity at 1 µM [7]: 94% | remaining activity at 1 µM [8]: 44% | remaining activity at 1 µM [9]: 80% | remaining activity at 1 µM [10]: 64% | remaining activity at 1 µM [11]: 100% | remaining activity at 1 µM [12]: 89% | remaining activity at 1 µM [13]: 86% | remaining activity at 1 µM [14]: 96% | remaining activity at 1 µM [15]: 56% | remaining activity at 1 µM [16]: 99% | remaining activity at 1 µM [17]: 72% | remaining activity at 1 µM [18]: 88% | remaining activity at 1 µM [19]: 80% | remaining activity at 1 µM [20]: 100% | remaining activity at 1 µM [21]: 69% | remaining activity at 1 µM [22]: 51% | remaining activity at 1 µM [23]: 94% | remaining activity at 1 µM [24]: 99% | remaining activity at 1 µM ([25]; ABL1-nonphosphorylated): 91% | remaining activity at 1 µM ([25]; ABL1-phosphorylated): 88% | remaining activity at 1 µM [26]: 33% | remaining activity at 1 µM [27]: 97% | remaining activity at 1 µM [28]: 69% | remaining activity at 1 µM [29]: 71% | remaining activity at 1 µM [30]: 100% | remaining activity at 1 µM [31]: 97%
